Reference: PubChem BioAssay AID1919017 (Molecular Pharmacology Branch, DTP, NCI, 2023)

System: SW1271 complex spheroids with HUVEC/MSC, growth, % test/control
Assay: Anticancer human tumor SW1271 cell line growth inhibition [AhR];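 also: spheroids exposed to agents for 7 days before readout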
Details: for IC50: curve of first compound; for viability, T/C: stronger effect = lower value
Description: Multicellular complex tumor spheroid response to aryl hydrocarbon receptor antagonists in combination with a variety of drugs and investigational agents in selected tumor cell lines
The current study was undertaken to assess response to aryl hydrocarbon receptor antagonists in combination with standard-of-care drugs and investigational agents in solid tumor complex spheroid models. Complex spheroids include a stromal component modeled by human endothelial cells (HUVEC) and fibroblasts modeled by human mesenchymal stem cells (MSCs). The concentration ranges selected for each drug and investigational agent were based upon clinically achievable concentrations if the clinical Cmax of the agent was known.
Compounds. The drugs and investigational agents: BAY 2416964 (NSC825713), GNF351 (NSC835774), CH-223191 (NSC835775), CPI-455 (NSC825282), aza-TdCyd (NSC777586), decitabine (NSC127716), belinostat (NSC758774), entinostat (NSC756642), pevonedistat (NSC761192), tazemetostat (NSC777109), talazoparib (NSC765396), olaparib (NSC753686), selinexor (NSC780203), nedisertib (M3814, NSC802822), bortezomib (NSC756655), venetoclax (NSC766270), doxorubicin (NSC123127), elimusertib (BAY189344, NSC800525), ceralasertib (AZD6738, NSC777638), TAK-243 (NSC785004), alisertib (NSC759677), etoposide (NSC141540), topotecan (NSC609699), eribulin (NSC707389), gemcitabine (NSC613327), carboplatin (NSC241240), cisplatin (NSC119875), and SN-38 (NSC673596) were obtained from the National Cancer Institute (NCI) Developmental Therapeutics Program Chemical Repository (32). The FDA-approved anticancer drug set is available from the Developmental Therapeutics Program at https://dtp.cancer.gov/organization/dscb/obtaining/available plates.htm. […] The stock solutions were prepared in dimethyl sulfoxide (DMSO, Sigma-Aldrich, St. Louis, MO, cat. D2650), except for the platinum compounds which were prepared in saline (Quality Biological, Gaithersburg, MD, cat. 114-055-101), at 800-fold the tested concentration and stored at -70 degrees C prior to their use. All drugs and investigational agents were tested over a range starting from a high concentration at or near the clinical Cmax and decreasing in half-log increments. If the clinical Cmax for an agent had not been determined, the highest concentration tested was 10 microM (Table 1).
Cell Culture. All cells were maintained in an incubator at 37 degrees C and 5% CO2 with 95% humidity. The PDC lines were cultured according to standard operating procedures established by the NCI PDMR (https://pdmr.cancer.gov). Briefly, all PDCs were thawed and cultured in Matrigel-coated flasks prepared with a working solution of 1X Ham's F-12 nutrient mix, without supplementation (Invitrogen, Waltham, MA, cat. 11765054), 100 U/mL penicillin-streptomycin (Invitrogen, cat. 15140122), and 2.5% Matrigel (Corning Inc., Corning, NY, cat. 354248) for the first three passages. All PDCs were cultured in complete DMEM/F-12 media containing advanced DMEM/F-12 (Invitrogen, cat. 12634028), 4.9% defined fetal bovine serum, heat inactivated (HyClone Laboratories Inc., Logan, UT, cat. SH30070.03HI), 389 ng/mL hydrocortisone (Sigma-Aldrich, cat. H4001), 9.7 ng/mL human EGF recombinant protein (Invitrogen, cat. PHG0313), 23.4 microg/mL adenine (Sigma-Aldrich, cat. A2786), 97.3 U/mL penicillin-streptomycin (Invitrogen, cat. 15140122), 1.9 mM L-glutamine (Invitrogen, cat. 25030081), and 9.7 microM Y-27632 dihydrochloride (Tocris Bioscience, Bristol, United Kingdom, cat. 1254). The PDCs were cultured in complete DMEM/F12 media without 10 microM Y-27632 dihydrochloride for at least two passages prior to the screen. The established cell lines NCI-H1341 and […] were cultured in DMEM/F-12, HEPES (Invitrogen, cat. 11330032), 5% defined fetal bovine serum (HyClone Laboratories Inc., cat. SH30070.03), ITS premix universal culture supplement [insulin (5 microg/mL), transferrin (5 microg/mL), and selenious acid (5 ng/mL)] […]

[1] = second compound 0.1 µM, first compound 0.00316 µM
[2] = second compound 0.1 µM, first compound 0.01 µM
[3] = second compound 0.1 µM, first compound 0.0316 µM
[4] = second compound 0.1 µM, first compound 0.1 µM
[5] = second compound 0.316 µM, first compound 0.00316 µM
[6] = second compound 0.316 µM, first compound 0.01 µM
[7] = second compound 0.316 µM, first compound 0.0316 µM
[8] = second compound 0.316 µM, first compound 0.1 µM
[9] = second compound 1 µM, first compound 0.00316 µM
[10] = second compound 1 µM, first compound 0.01 µM
[11] = second compound 1 µM, first compound 0.0316 µM
[12] = second compound 1 µM, first compound 0.1 µM
[13] = second compound 3.16 µM, first compound 0.00316 µM
[14] = second compound 3.16 µM, first compound 0.01 µM
[15] = second compound 3.16 µM, first compound 0.0316 µM
[16] = second compound 3.16 µM, first compound 0.1 µM
[17] = second compound 10 µM, first compound 0.00316 µM
[18] = second compound 10 µM, first compound 0.01 µM
[19] = second compound 10 µM, first compound 0.0316 µM
[20] = second compound 10 µM, first compound 0.1 µM
[21] = second compound 0.1 µM, first compound 0.316 µM
[22] = second compound 0.1 µM, first compound 1 µM
[23] = second compound 0.1 µM, first compound 3.16 µM
[24] = second compound 0.1 µM, first compound 10 µM
[25] = second compound 0.316 µM, first compound 0.316 µM
[26] = second compound 0.316 µM, first compound 1 µM
[27] = second compound 0.316 µM, first compound 3.16 µM
[28] = second compound 0.316 µM, first compound 10 µM
[29] = second compound 1 µM, first compound 0.316 µM
[30] = second compound 1 µM, first compound 1 µM
[31] = second compound 1 µM, first compound 3.16 µM
[32] = second compound 1 µM, first compound 10 µM
[33] = second compound 3.16 µM, first compound 0.316 µM
[34] = second compound 3.16 µM, first compound 1 µM
[35] = second compound 3.16 µM, first compound 3.16 µM
[36] = second compound 3.16 µM, first compound 10 µM
[37] = second compound 10 µM, first compound 0.316 µM
[38] = second compound 10 µM, first compound 1 µM
[39] = second compound 10 µM, first compound 3.16 µM
[40] = second compound 10 µM, first compound 10 µM

| Compound | IC50 (second compound 0.1 µM) [nM] | IC50 (second compound 0.316 µM) [nM] | IC50 (second compound 1 µM) [nM] | IC50 (second compound 3.16 µM) [nM] | IC50 (second compound 10 µM) [nM] | viability, T/C [3] [%] | viability, T/C [4] [%] | viability, T/C [7] [%] | viability, T/C [8] [%] | viability, T/C [11] [%] | viability, T/C [12] [%] | viability, T/C [15] [%] | viability, T/C [16] [%] | viability, T/C [19] [%] | viability, T/C [20] [%] | viability, T/C [21] [%] | viability, T/C [22] [%] | viability, T/C [25] [%] | viability, T/C [26] [%] | viability, T/C [29] [%] | other results |
| --- | --- | --- | --- | --- | --- | --- | --- | --- | --- | --- | --- | --- | --- | --- | --- | --- | --- | --- | --- | --- | --- |
| CC[C@@]1(O)C(=O)OCc2c1cc1n(c2=O)Cc2cc3c(CN(C)C)c(O)ccc3nc2-1 + CC(CO)NC(=O)c1cc(-c2ccc(Cl)cc2)nn(-c2cnn(C)c2)c1=O | > 100 | > 100 | > 100 | > 100 | > 100 | 65.8 | 58 | 68.2 | 50.2 | 57.2 | 62.8 | 61.8 | 53.5 | 60.2 | 51.9 |  |  |  |  |  | viability, T/C (second compound 0.1 µM, first compound 0.000316 µM): 93.6%; viability, T/C (second compound 0.1 µM, first compound 0.001 µM): 91.3%; viability, T/C [1]: 75.2%; viability, T/C [2]: 81.6%; viability, T/C (second compound 0.316 µM, first compound 0.000316 µM): 92.9%; viability, T/C (second compound 0.316 µM, first compound 0.001 µM): 70.6%; viability, T/C [5]: 91.1%; viability, T/C [6]: 87.4%; viability, T/C (second compound 1 µM, first compound 0.000316 µM): 81%; viability, T/C (second compound 1 µM, first compound 0.001 µM): 73.6%; viability, T/C [9]: 84.4%; viability, T/C [10]: 87%; viability, T/C (second compound 3.16 µM, first compound 0.000316 µM): 77.9%; viability, T/C (second compound 3.16 µM, first compound 0.001 µM): 85.2%; viability, T/C [13]: 69.8%; viability, T/C [14]: 61.6%; viability, T/C (second compound 10 µM, first compound 0.000316 µM): 75.8%; viability, T/C (second compound 10 µM, first compound 0.001 µM): 73.8%; viability, T/C [17]: 63.5%; viability, T/C [18]: 69.3% |
| COc1cc(C2c3cc4c(cc3C(OC3OC5COC(C)OC5C(O)C3O)C3COC(=O)C23)OCO4)cc(OC)c1O (stereo not given) + CC(CO)NC(=O)c1cc(-c2ccc(Cl)cc2)nn(-c2cnn(C)c2)c1=O | 9250 | 5010 | 8480 | 3030 | 2910 | 78.3 | 74.3 | 93.5 | 77.6 | 64.7 | 78.5 | 70.9 | 68 | 71.1 | 65 | 66.5 | 72.7 | 60.4 | 57.9 | 59.4 | viability, T/C [23]: 57.1%; viability, T/C [24]: 49.5%; viability, T/C [27]: 56%; viability, T/C [28]: 44.5%; viability, T/C [30]: 60.1%; viability, T/C [31]: 61.6%; viability, T/C [32]: 47.7%; viability, T/C [33]: 59.6%; viability, T/C [34]: 45.2%; viability, T/C [35]: 59.2%; viability, T/C [36]: 43.6%; viability, T/C [37]: 50.7%; viability, T/C [38]: 63.7%; viability, T/C [39]: 43.4%; viability, T/C [40]: 48.3% |
| COc1cccc2c1C(=O)c1c(O)c3c(c(O)c1C2=O)CC(O)(C(=O)CO)CC3OC1CC(N)C(O)C(C)O1 (stereo not given) + CC(CO)NC(=O)c1cc(-c2ccc(Cl)cc2)nn(-c2cnn(C)c2)c1=O | 348 | 136 | 151 | 337 | 165 | 62.5 | 67.7 | 49.2 | 61.1 | 72 | 52.9 | 68.6 | 54 | 58.7 | 61.3 | 54 | 5.59 | 35.6 | 4 | 39.2 | viability, T/C [23]: 1.72%; viability, T/C [24]: 3.58%; viability, T/C [27]: 1.69%; viability, T/C [28]: 2.61%; viability, T/C [30]: 3.81%; viability, T/C [31]: 1.11%; viability, T/C [32]: 2.5%; viability, T/C [33]: 52.8%; viability, T/C [34]: 1.66%; viability, T/C [35]: 2.16%; viability, T/C [36]: 2.9%; viability, T/C [37]: 37%; viability, T/C [38]: 0.78%; viability, T/C [39]: 1.79%; viability, T/C [40]: 3.41% |
| Nc1ncn(C2CC(O)C(CO)O2)c(=O)n1 (stereo not given) + CC(CO)NC(=O)c1cc(-c2ccc(Cl)cc2)nn(-c2cnn(C)c2)c1=O | > 1000 | > 1000 | > 1000 | > 1000 | > 1000 | 80 | 75.9 | 77.5 | 79.7 | 81.6 | 75.1 | 79.3 | 67.1 | 67.5 | 67.2 | 93 | 66.8 | 62.1 | 105 | 75.8 | viability, T/C [1]: 73.8%; viability, T/C [2]: 85.4%; viability, T/C [5]: 78.2%; viability, T/C [6]: 88%; viability, T/C [9]: 76%; viability, T/C [10]: 79.7%; viability, T/C [30]: 76.1%; viability, T/C [13]: 60%; viability, T/C [14]: 81%; viability, T/C [33]: 68.8%; viability, T/C [34]: 78%; viability, T/C [17]: 65.9%; viability, T/C [18]: 66.5%; viability, T/C [37]: 59.1%; viability, T/C [38]: 54.6% |
